From PubChem BioAssay (NCI)
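48-hour exposure; five concentrations; linearly interpolated endpoints. At the TGI there is no net growth.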

What was measured:
Test in all cases: inhibition of tumour cell growth, NCI panel, 48 h
[1] = tested on: SF-268 CNS
[2] = tested on: HOP-62 NSCLC
[3] = tested on: HS 578T breast
[4] = tested on: CAKI-1 renal
[5] = tested on: PC-3 prostate
[6] = tested on: SN12C renal
[7] = tested on: SK-MEL-2 melanoma
[8] = tested on: MDA-MB-435
[9] = tested on: IGROV1 ovarian
[10] = tested on: KM12 colon
[11] = tested on: OVCAR-8 ovarian
[12] = tested on: UACC-62 melanoma
[13] = tested on: NCI-H226 lung
[14] = tested on: CCRF-CEM leukemia
[15] = tested on: K-562 leukemia
[16] = tested on: HL-60(TB) leukemia
[17] = tested on: SK-MEL-5 melanoma
[18] = tested on: EKVX NSCLC
[19] = tested on: COLO 205 colon
[20] = tested on: SK-MEL-28 melanoma
[21] = tested on: NCI-H460 lung
[22] = tested on: A498 renal
[23] = tested on: SF-539 CNS
[24] = tested on: SK-OV-3 ovarian
[25] = tested on: HCC-2998 colon
[26] = tested on: DU-145 prostate
[27] = tested on: SW-620 colon
[28] = tested on: MDA-N
[29] = tested on: TK-10 renal
[30] = tested on: MDA-MB-231 breast
[31] = tested on: SR leukemia
[32] = tested on: MOLT-4 leukemia
[33] = tested on: RPMI-8226 leukemia
[34] = tested on: BT-549 breast
[35] = tested on: OVCAR-3 ovarian
[36] = tested on: A549 NSCLC
[37] = tested on: SF-295 CNS
[38] = tested on: UACC-257 melanoma
[39] = tested on: OVCAR-4 ovarian
[40] = tested on: U251 CNS
[41] = tested on: OVCAR-5 ovarian
[42] = tested on: HCT-15 colon
[43] = tested on: NCI-H522 lung
[44] = tested on: MCF7 breast
[45] = tested on: HCT-116 colon
[46] = tested on: SNB-19 CNS
[47] = tested on: HT29 colon
[48] = tested on: UO-31 renal
[49] = tested on: MALME-3M melanoma
[50] = tested on: 786-0 renal
[51] = tested on: T-47D breast
[52] = tested on: NCI-H23 lung
[53] = tested on: M14 melanoma
[54] = tested on: LOX IMVI melanoma
[55] = tested on: NCI/ADR-RES ovarian
[56] = tested on: ACHN renal
[57] = tested on: RXF 393 renal
[58] = tested on: SNB-75 CNS
[59] = tested on: HOP-92 NSCLC

## COc1ccc(CCN2CCN(CCCc3ccccc3)CC2)cc1
[1]
  TGI: > 100 µM
[2]
  TGI: > 100 µM
[3]
  TGI: > 100 µM
[4]
  TGI: > 100 µM
[5]
  TGI: > 100 µM
[6]
  TGI: > 100 µM
[7]
  TGI: > 100 µM
[8]
  TGI: > 100 µM
[9]
  TGI: > 100 µM
[10]
  TGI: > 100 µM
[11]
  TGI: > 100 µM
[12]
  TGI: > 100 µM
[13]
  TGI: > 100 µM
[14]
  TGI: > 100 µM
[15]
  TGI: > 100 µM
[16]
  TGI: > 100 µM
[17]
  TGI: 56.9 µM
[18]
  TGI: > 100 µM
[19]
  TGI: 54.3 µM
[20]
  TGI: > 100 µM
[21]
  TGI: > 100 µM
[22]
  TGI: > 100 µM
[23]
  TGI: > 100 µM
[24]
  TGI: > 100 µM
[25]
  TGI: > 100 µM
[26]
  TGI: > 100 µM
[27]
  TGI: > 100 µM
[28]
  TGI: > 100 µM
[29]
  TGI: > 100 µM
[30]
  TGI: > 100 µM
[31]
  TGI: > 100 µM
[32]
  TGI: > 100 µM
[33]
  TGI: > 100 µM
[34]
  TGI: > 100 µM
[35]
  TGI: > 100 µM
[36]
  TGI: > 100 µM
[37]
  TGI: > 100 µM
[38]
  TGI: > 100 µM
[39]
  TGI: > 100 µM
[40]
  TGI: > 100 µM
[41]
  TGI: > 100 µM
[42]
  TGI: > 100 µM
[43]
  TGI: > 100 µM
[44]
  TGI: > 100 µM
[45]
  TGI: > 100 µM
[46]
  TGI: > 100 µM
[47]
  TGI: > 100 µM
[48]
  TGI: > 100 µM
[49]
  TGI: > 100 µM
[50]
  TGI: > 100 µM
[51]
  TGI: > 100 µM
[52]
  TGI: > 100 µM
[53]
  TGI: > 100 µM
[54]
  TGI: > 100 µM
[55]
  TGI: > 100 µM
[56]
  TGI: > 100 µM

## CCOC(=O)c1c(N)sc2c1CC(C)CC2 (configuration not stated)
[1]
  TGI: > 100 µM
[2]
  TGI: > 100 µM
[3]
  TGI: > 100 µM
[4]
  TGI: > 100 µM
[5]
  TGI: > 100 µM
[6]
  TGI: > 100 µM
[7]
  TGI: > 100 µM
[8]
  TGI: > 100 µM
[9]
  TGI: > 100 µM
[10]
  TGI: > 100 µM
[11]
  TGI: > 100 µM
[12]
  TGI: > 100 µM
[13]
  TGI: 64 µM
[15]
  TGI: > 100 µM
[16]
  TGI: 23.2 µM
[17]
  TGI: 37.7 µM
[18]
  TGI: > 100 µM
[19]
  TGI: 89.5 µM
[20]
  TGI: > 100 µM
[57]
  TGI: 44.9 µM
[21]
  TGI: > 100 µM
[24]
  TGI: > 100 µM
[25]
  TGI: 45.6 µM
[26]
  TGI: > 100 µM
[27]
  TGI: > 100 µM
[28]
  TGI: > 100 µM
[29]
  TGI: > 100 µM
[30]
  TGI: > 100 µM
[31]
  TGI: 86.8 µM
[32]
  TGI: > 100 µM
[33]
  TGI: 75 µM
[58]
  TGI: 98.1 µM
[34]
  TGI: > 100 µM
[35]
  TGI: > 100 µM
[36]
  TGI: > 100 µM
[37]
  TGI: > 100 µM
[38]
  TGI: 97.3 µM
[39]
  TGI: > 100 µM
[40]
  TGI: > 100 µM
[41]
  TGI: > 100 µM
[42]
  TGI: > 100 µM
[43]
  TGI: 40.5 µM
[59]
  TGI: 74.2 µM
[44]
  TGI: > 100 µM
[45]
  TGI: > 100 µM
[46]
  TGI: > 100 µM
[47]
  TGI: 50.3 µM
[48]
  TGI: > 100 µM
[49]
  TGI: > 100 µM
[50]
  TGI: 55.3 µM
[51]
  TGI: > 100 µM
[52]
  TGI: > 100 µM
[53]
  TGI: > 100 µM
[54]
  TGI: > 100 µM
[55]
  TGI: > 100 µM
[56]
  TGI: > 100 µM
